Source: PMC9686985, “Chimeric Peptides Derived from Bovine Lactoferricin and Buforin II: Antifungal Activity against Reference Strains and Clinical Isolates of Candida spp” (Antibiotics, 2022)
Like-named read-outs stand apart in the source and are kept apart here. Non-standard residues stand in square brackets, D forms with d. Residues, ends and D or L forms follow the SMILES beside them. No end group written: not given here. Ahx = NCCCCCC(=O)O

How the values were obtained:
C. albicans ATCC SC5314 = format: cell-based, Candida albicans
Protocol: (§1) Antifungal susceptibility testing was carried out using the broth microdilution (BMD) method, following the CLSI M27-A3 guidelines with slight modifications. Briefly, cells (0.5–2.5 × 10^3 CFU/mL) were incubated with peptides (200, 100, 50, 25, 12.5, and 6.25 µg/mL) at 37 °C for 48 h. MICs were visualized and densitometry (595 nm, microplate reader, Bio-Rad, ᵢMark^TM) was used to determine the lowest concentration of peptide that caused a significant decrease (MIC/2 or ≥50%) compared with the growth control (cells incubated in absence of peptide) (n = 3). In order to verify that the peptides were able to kill the yeast cells, the plates were also evaluated for minimum fungicidal concentration (MFC). Briefly, aliquots from each well from susceptibility testing assays were transferred to plates containing Sabouraud dextrose agar (SDA), which were then incubated at 37 °C for 24 h. The highest dilution with no growth on the agar plate was considered to be the MFC.

C. albicans 256 HUSI-PUJ = format: cell-based, Candida albicans; settings: for MFC: 24 h; for MIC: 48 h
Protocol: as §1

[1] = FLC-sensitive reference strain, aliquots plated on SDA, 37 °C, 24 h, no growth
[2] = FLC-sensitive reference strain, broth microdilution CLSI M27-A3, 37 °C, 48 h, ≥50% decrease vs growth control, n = 3
[3] = FLC-resistant clinical isolate, aliquots plated on SDA, 37 °C, no growth
[4] = FLC-resistant clinical isolate, broth microdilution CLSI M27-A3, 37 °C, ≥50% decrease vs growth control, n = 3

Question: What does the source list for RRWQWRRLLR-NH2 [C1]?
Answer: MFC (C. albicans ATCC SC5314; ATCC SC5314, 24 h): > 131 µM; MIC (C. albicans ATCC SC5314; ATCC SC5314, 48 h): 131 µM; MFC (C. albicans 256 HUSI-PUJ; 256 HUSI-PUJ): > 131 µM; MIC (C. albicans 256 HUSI-PUJ; 256 HUSI-PUJ): 66 µM

Question: How did the MFC (C. albicans ATCC SC5314; ATCC SC5314, 24 h) turn out when `CC(C)C[C@H](NC(=O)[C@H](CC(C)C)NC(=O)[C@H](CCCCN)NC(=O)[C@H](CCCCN)NC(=O)[C@H](CC(C)C)NC(=O)[C@H](CC(C)C)NC(=O)[C@H](CCCCN)NC(=O)CCCCCNC(=O)[C@H](CCCCN)NC(=O)[C@H](Cc1c[nH]c2ccccc12)NC(=O)[C@H](CCC(N)=O)NC(=O)[C@H](Cc1c[nH]c2ccccc12)NC(=O)[C@H](CCCCN)NC(=O)[C@@H](N)CCCCN)C(=O)N[C@@H](CCCCN)C(N)=O` [C7] (H-KKWQWK[Ahx]KLLKKLLK-NH2) was run?
Answer: > 101 µM

Question: And the MIC (C. albicans ATCC SC5314; ATCC SC5314, 48 h)?
Answer: 101 µM

Question: What about the MFC (C. albicans 256 HUSI-PUJ; 256 HUSI-PUJ) of the same compound?
Answer: > 101 µM

Question: What about the MIC (C. albicans 256 HUSI-PUJ; 256 HUSI-PUJ) of the same compound?
Answer: 101 µM

Question: `CC(C)C[C@H](NC(=O)[C@H](CC(C)C)NC(=O)[C@@H](N)CCCNC(=N)N)C(=O)N[C@@H](CCCNC(=N)N)C(=O)NCCCCCC(=O)N[C@@H](CCCNC(=N)N)C(=O)N[C@@H](CCCNC(=N)N)C(=O)N[C@@H](Cc1c[nH]c2ccccc12)C(=O)N[C@@H](CCC(N)=O)C(=O)N[C@@H](Cc1c[nH]c2ccccc12)C(=O)N[C@@H](CCCNC(=N)N)C(N)=O` [C4] (H-RLLR[Ahx]RRWQWR-NH2; N-terminus assumed) was tested. Which MFC (C. albicans ATCC SC5314; ATCC SC5314, 24 h) did it give?
Answer: > 122 µM

Question: And the MIC (C. albicans ATCC SC5314; ATCC SC5314, 48 h)?
Answer: > 122 µM

Question: And the MFC (C. albicans ATCC SC5314; [1])?
Answer: > 200 µg/mL

Question: And the MIC (C. albicans ATCC SC5314; [2])?
Answer: > 200 µg/mL

Question: And the MFC (C. albicans 256 HUSI-PUJ; 256 HUSI-PUJ)?
Answer: > 122 µM

Question: What about the MIC (C. albicans 256 HUSI-PUJ; 256 HUSI-PUJ) of the same compound?
Answer: 122 µM

Question: What about the MFC (C. albicans 256 HUSI-PUJ; [3]) of the same compound?
Answer: > 200 µg/mL

Question: And the MIC (C. albicans 256 HUSI-PUJ; [4])?
Answer: 200 µg/mL

Question: How did the MFC (C. albicans ATCC SC5314; ATCC SC5314, 24 h) turn out when `CC(C)C[C@H](NC(=O)[C@H](CC(C)C)NC(=O)[C@H](CCCNC(=N)N)NC(=O)CCCCCNC(=O)[C@H](CCCNC(=N)N)NC(=O)[C@H](Cc1c[nH]c2ccccc12)NC(=O)[C@H](CCC(N)=O)NC(=O)[C@H](Cc1c[nH]c2ccccc12)NC(=O)[C@H](CCCNC(=N)N)NC(=O)[C@@H](N)CCCNC(=N)N)C(=O)N[C@@H](CCCNC(=N)N)C(N)=O` [C2] (H-RRWQWR[Ahx]RLLR-NH2; N-terminus assumed) was run?
Answer: > 122 µM

Question: And the MIC (C. albicans ATCC SC5314; ATCC SC5314, 48 h)?
Answer: 122 µM

Question: What about the MFC (C. albicans ATCC SC5314; [1]) of the same compound?
Answer: > 200 µg/mL

Question: And the MIC (C. albicans ATCC SC5314; [2])?
Answer: 200 µg/mL

Question: What about the MFC (C. albicans 256 HUSI-PUJ; 256 HUSI-PUJ) of the same compound?
Answer: > 122 µM

Question: And the MIC (C. albicans 256 HUSI-PUJ; 256 HUSI-PUJ)?
Answer: 122 µM

Question: What about the MFC (C. albicans 256 HUSI-PUJ; [3]) of the same compound?
Answer: > 200 µg/mL

Question: And the MIC (C. albicans 256 HUSI-PUJ; [4])?
Answer: 200 µg/mL

Question: How did the MFC (C. albicans ATCC SC5314; ATCC SC5314, 24 h) turn out when “RLLRRLLR [BFII (32–35)Pal, reference compound]” was run?
Answer: > 183 µM

Question: And the MIC (C. albicans ATCC SC5314; ATCC SC5314, 48 h)?
Answer: > 183 µM

Question: What about the MFC (C. albicans 256 HUSI-PUJ; 256 HUSI-PUJ) of the same compound?
Answer: > 183 µM

Question: And the MIC (C. albicans 256 HUSI-PUJ; 256 HUSI-PUJ)?
Answer: > 183 µM
